The values that follow come from patent US8242274B2, “Triazolopyridine kinase inhibitors useful for the treatment of degenerative and inflammatory diseases” (Galapagos NV, priority 2008, dated 2012).

By NOAEL is commonly meant the highest tested level that showed no adverse finding.

The structures appear in SMILES notation.

This data set can be described thus: in vivo. Particulars: male, Sprague-Dawley, rat, po. The protocol: A 7-day oral toxicity study with test compounds was performed in Sprague-Dawley male rats to assess their toxic potential and toxicokinetics, at daily doses of 100, 300 and 500 mg/kg/day, by gavage, at the constant dosage-volume of 5 mL/kg/day.
The test compounds were formulated in 30% (v/v) HPβCD in purified water. Each group included 5 principal male rats as well as 3 satellite animals for toxicokinetics. A fourth group was given 30% (v/v) HPβCD in water only, at the same frequency, dosage volume and by the same route of administration, and acted as the vehicle control group.
Compounds 37 and 176 were tested in this protocol.

On to `N#Cc1ccc(COc2ccc(-c3cccc4nc(NC(=O)C5CC5)nn34)cc2)cn1` [Compound 176, N-(5-(4-((6-cyanopyridin-3-yl)methoxy)phenyl)-[1,2,4]triazolo[1,5-a]pyridin-2-yl)cyclopropanecarboxamide], for which the NOAEL at 7 day came out at 500 mg/kg.
In turn, `O=C(Nc1nc2cccc(-c3ccc(OCc4ccccn4)cc3)n2n1)C1CC1` [Compound 37, N-(5-(4-(pyridin-2-ylmethoxy)phenyl)-[1,2,4]triazolo[1,5-a]pyridin-2-yl)cyclopropanecarboxamide] gave a no-observed-adverse-effect level (NOAEL) at 7 day of 500 mg/kg.
